This is an account of results in patent publication US10859569B2, “SmFRET with membrane proteins” (Cornell University, priority 2010, dated 2020).

pEC50: −log10 of the molar value. “Also recorded” adds a separate entry of the source. Where only a bound is given, the exact number is not on record here.

For one assay, the system named is LeuT (H7C/R86C). Briefly: smFRET imaging of surface-immobilized Cy3/Cy5-labeled LeuT (H7C/R86C), intracellular gate. The format is biochemical, Aquifex aeolicus. Here is the method: (§1) The inventors acquired fluorescence data using a prism-based TIR microscope, as described (Munro, J. B. et al., Mol. Cell 25, 505-517 (2007)). All experiments were performed in buffer containing 50 mM Tris/MES (pH 7.5), 10% glycerol, 0.02% w/v DDM, 5 mM 2-mercaptoethanol and 200 mM salt (KCl or NaCl, as specified). The inventors used an oxygen scavenging environment (1 unit per μl glucose oxidase, 8 units per μl catalase, 0.1% v/v glucose) containing 1 mM cyclooctatetraene in all experiments to minimize photobleaching (Dave, R. et al., Biophys. J. 96, 2371-2381 (2009)).
The inventors incubated microfluidic imaging chambers passivated with a mixture of PEG and biotin-PEG (Blanchard, S. C. et al. Proc. Natl Acad. Sci. USA 101, 12893-12898 (2004)) with 0.8 μM streptavidin (Invitrogen), followed by 20 nM biotin-NTA (Biotium) charged with NiCl2. Cy3/Cy5-labeled His10-LeuT molecules (2 nM) were surface-immobilized to surface-bound Ni2+. The inventors observed no significant surface immobilization, measured as described below, in the absence of biotin-NTA.
Cy3 fluorophores were excited by the evanescent wave generated by TIR of a single-frequency light source (Ventus 532 nm, Laser Quanta). Photons emitted from Cy3 and Cy5 were collected using a 1.2 NA 60× water-immersion objective (Nikon), and optical treatments were used to spatially separate Cy3 and Cy5 frequencies onto a cooled, back-thinned CCD (Cascade 128, Photometrics). The inventors acquired fluorescence data using MetaMorph software (Universal Imaging Corporation). The inventors corrected spectral bleed-through of Cy3 intensity on the acceptor channel by subtracting 7.5% of donor signal from the acceptor. FRET traces were calculated as: FRET=ICy5/(ICy3+ICy5), where ICy3 and ICy5 are the instantaneous Cy3 and Cy5 fluorescence intensities, respectively. Using an established procedure (Roy, et al., Nature Methods 5: 507-516 (2008)), The inventors estimated the ratio of donor and acceptor quantum yields and detection efficiencies (γ) to be close to 1; therefore, no correction was applied.
The inventors analyzed fluorescence and FRET traces using automated analysis, in which traces were selected using algorithms implemented in MATLAB (MathWorks). Algorithms for analyzing smFRET data are found in U.S. 61/437,203, which is herein incorporated by reference in its entirety. Properties were calculated for each trace, and selected for further analysis if they met the following specific criteria: a single photobleaching event, at least 8:1 signal-to-background noise ratio (SNR), <4 donor fluorophore blinking events, a donor-to-acceptor Pearson's correlation coefficient <0.5, and a lifetime of at least 15 frames showing FRET ≥0.15. The inventors detected photobleaching events in each trace as a significant (≥3 standard deviations of background noise) drop in the median-filtered (window size of 9 frames) total fluorescence intensity (ITotal=ICy3+ICy5) without a return to the previous average level. Events in which fluorescence intensity did return were marked as blinking events. Signal-to-noise ratios are calculated as total intensity relative to the standard deviation of background noise: ITotal/stdev(ICy3)+stdev(ICy5). The inventors excluded data points corresponding to donor fluorophore dark states from calculation of the correlation coefficient.
To simplify the presentation of FRET histograms, The inventors removed zero-FRET states following idealization of the data to a two-state model (E=0.1±0.1 and E=0.4±0.1) using a segmental k-means algorithm (Qin, F., Biophys. J. 86, 1488-1501 (2004)). Error bars in FRET histograms represent the standard deviation of 100 bootstrap samples of each set of FRET traces examined.
The inventors estimated kinetic parameters for biotinylated H7C-R86C-LeuT samples by manually selecting traces showing at least one transition between clearly distinct states with anti-correlated changes in donor and acceptor fluorescence intensity in each transition. […]

The next assay has as its system LeuT (K239C/H480C). Briefly: smFRET imaging of extracellularly labeled LeuT K239C/H480C. It is filed as biochemical, Aquifex aeolicus. The following applies: 0.5 mM CMI; increased from ~0.49 without CMI. Here is the method:
as §1
(§2) The inventors incubated microfluidic imaging chambers passivated with a mixture of PEG and biotin-PEG (Blanchard, S. C. et al. Proc. Natl Acad. Sci. USA 101, 12893-12898 (2004)) with 0.8 μM streptavidin (Invitrogen), followed by 20 nM biotin-NTA (Biotium) charged with NiCl2. […] The inventors observed no significant surface immobilization, measured as described below, in the absence of biotin-NTA.
(§3) Cy3 fluorophores were excited by the evanescent wave generated by TIR of a single-frequency light source (Ventus 532 nm, Laser Quanta). […] The inventors acquired fluorescence data using MetaMorph software (Universal Imaging Corporation). […] FRET traces were calculated as: FRET=ICy5/(ICy3+ICy5), where ICy3 and ICy5 are the instantaneous Cy3 and Cy5 fluorescence intensities, respectively. […]

In assay [1] the test system is LeuT. The following applies: read-out: half-maximum effective concentration (EC50) of Na+ for stimulating binding and transport; cited from earlier work.
The test system of another assay is LeuT (H7C/T515C). Briefly: smFRET imaging of Cy3/Cy5-labeled LeuT H7C/T515C. It is filed as biochemical, Aquifex aeolicus. The note with it: saturating Na+ 200 mM. Here is the method: as §1, §2, §3
The subject of assay [2] is LeuT. Briefly: Scintillation proximity assay (SPA) binding of 3H-alanine to purified LeuT variants. Further details: species or system Aquifex aeolicus. The following applies: 50 mM Na+. Here is the method: Scintillation proximity-based binding studies. Binding of ^3H-leucine or ^3H-alanine (146 Ci/mmol and 49.4 Ci/mmol, respectively; Moravek) to purified LeuT-variants was measured with the scintillation proximity assay (SPA) as described (Shi, L. et al., Mol. Cell 30, 667-677 (2008)) with 25 ng of purified protein per assay in buffer composed of 150 mM Tris/Mes, pH 7.5/50 mM NaCl/1 mM TCEP/0.1% n-dodecyl-β-D-maltopyranoside or 50 mM Tris/Mes, pH 7.5/150 mM LiCl/1 mM TCEP/0.1% n-dodecyl-β-D-maltopyranoside. To determine the molar ratio of Leu (or Ala)-to LeuT binding samples were incubated with increasing concentrations of radioligand and measured in the SPA cpm mode of the MircoBeta™ counter (Perkin Elmer). The efficiency of detection was calculated with standard curves of known concentrations of ^3H-Leu or ^3H-Ala. The standard curves were used to transform cpm into the amount of bound substrate (Shi, L. et al., Mol. Cell 30, 667-677 (2008)). The amount of LeuT in the SPA assays was determined (Schaffner, W. et al., Anal. Biochem. 56, 502-514 (1973)). SPA-based binding studies using 2 μM [^22Na]Cl (1017 mCi/mg; Perkin Elmer) were performed in 200 Tris/Mes, pH 7.5/1 mM TCEP/0.1% n-dodecyl-β-D-maltopyranoside in the presence of 0-50 mM NaCl (equimolar replacement of Tris/Mes to obtain a total molarity of 200 mM) (Shi, L. et al., Mol. Cell 30, 667-677 (2008)). […]
On the technique in general: Scintillation proximity formats need no separation of bound from free tracer.

Assay [3] deals with LeuT. Briefly: 3H-Ala transport in LeuT proteoliposomes. The format is biochemical, Aquifex aeolicus. The note with it: in the presence of Li+ (150 mM). Here is the method:
Proteoliposomes were prepared as described (Shi, L. et al., Mol. Cell 30, 667-677 (2008)). The accumulation of ^3H-[…].4 Ci mmol^-1; Moravek) was measured at 23° C. in assay buffer comprised of 150/50 mM Tris/Mes (pH 8.5) and 50 mM NaCl/150 mM LiCl. The reaction was quenched by the addition of ice-cold assay buffer without radiotracer and the proteoliposomes were collected on GF75 glass fiber filters (Advantec) before the determination of the accumulated cpm by liquid scintillation counting.

In assay [4] the target is Y335A dopamine transporter (Homo sapiens, UniProt Q01959, Y335A). The note with it: Y335A dopamine transporter mutant; cited from earlier work.
Chain of Y335A dopamine transporter (Q01959 whole entry Y335A): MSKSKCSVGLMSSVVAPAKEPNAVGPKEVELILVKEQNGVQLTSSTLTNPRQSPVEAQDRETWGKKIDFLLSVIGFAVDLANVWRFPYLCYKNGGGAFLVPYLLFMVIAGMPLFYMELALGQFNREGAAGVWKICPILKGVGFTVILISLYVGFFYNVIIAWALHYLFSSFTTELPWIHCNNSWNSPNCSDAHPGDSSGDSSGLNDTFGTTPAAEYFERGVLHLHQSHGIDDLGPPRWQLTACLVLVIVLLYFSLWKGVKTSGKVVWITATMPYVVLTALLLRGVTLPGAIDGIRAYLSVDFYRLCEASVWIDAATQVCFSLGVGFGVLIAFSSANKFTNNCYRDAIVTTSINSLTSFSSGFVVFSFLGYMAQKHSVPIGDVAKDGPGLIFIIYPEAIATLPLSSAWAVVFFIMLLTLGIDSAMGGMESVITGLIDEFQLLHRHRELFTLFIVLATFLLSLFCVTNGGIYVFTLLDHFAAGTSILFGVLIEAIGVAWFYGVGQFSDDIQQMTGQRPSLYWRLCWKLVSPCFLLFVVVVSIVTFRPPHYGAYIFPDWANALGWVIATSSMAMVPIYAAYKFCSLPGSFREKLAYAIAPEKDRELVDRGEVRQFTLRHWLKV
Setting [5] is: 10 mM Na+ and 250 μM Ala, 0.1 mM CMI or 35 mM OG.

Consider `CN(C)CCCN1c2ccccc2CCc2ccc(Cl)cc21` [CMI, clomipramine], for which, in the assay on LeuT (H7C/R86C) (0.5 mM CMI, 200 mM KCl, wild-type H7C/R86C), the “FRET value of stabilized high-FRET state” value is recorded as around 0.69. In the assay on LeuT (H7C/R86C) (setting [5]), the “effect on intracellular gating dynamics” value is “essentially eliminated the occurrence of intracellular gate opening; also recorded: inhibits these conformational dynamics”. Further, in the assay on LeuT (K239C/H480C), the “FRET between K239C/H480C labels with inhibitor bound” value is on record as around 0.53.
For `CC(C)C[C@H](N)C(=O)O` [Leu, L-leucine], the “further changes in FRET upon addition of leucine” value with LeuT (H7C/R86C) (20 μM leucine at 200 mM Na+) is recorded as “did not observe further changes in FRET”. Also, in the assay on LeuT (H7C/R86C) (2 mM Na+, Leu titration), the “stabilization of closed intracellular gate state” value is on record as around 3.5 fold. Also, the “effect of leucine binding on low-/high-FRET populations” value in the assay with LeuT (H7C/R86C) (5 mM Na+, 0.2-20 μM leucine) is given as “redistributed the two populations in a concentration-dependent fashion in favour of higher-FRET configurations”. Further, in the assay on LeuT (H7C/R86C) (LeuT-R5A, 7/86 pair, 200 mM NaCl and 20 μM leucine), the “FRET value of high-FRET configurations reached by leucine-dependent isomerization” value is on record as around 0.77. Besides, in the assay with LeuT (H7C/R86C) (as much as, similar to Na+ (50 mM) alone), the “raising of energy barrier to motion” value was around 0.96 kcal/mol.
For the molecule `[Na+]` [Na^+], the pEC50 in the assay on LeuT [1] was around 2.00; in the assay on LeuT (H7C/R86C) (hidden Markov modeling of Na+ titration, read-out: EC50 for altering distribution of low- and high-FRET LeuT conformations), 1.96. Also, the “preferential stabilization of the inward-closed state” value with LeuT (H7C/R86C) (Na+ titration) was around 7 fold. Further, the “dwell time of high FRET state” value with LeuT (H7C/R86C) (high Na+ concentrations, limited by photobleaching) is listed as above 76 s. The “FRET value of stabilized higher-FRET state” value is given as around 0.77 with LeuT (H7C/R86C) (saturating Na+ 200 mM, H7C/R86C) and around 0.73 in the assay on LeuT (H7C/T515C).
Turning to `C[C@H](N)C(=O)O` [Ala, L-alanine], the “Ala binding to the S2 site” value in the assay on LeuT [2] (F253A mutant) is “bound stoichiometrically”. Moreover, the “Ala binding to the S1 site” value with LeuT [2] (L400S mutant) is listed as “stoichiometric”. In the assay on LeuT (H7C/R86C) (2 mM Na+, increasing Ala concentrations), the “effect on FRET distribution” value is “did not shift the FRET distribution toward the closed state”. For the same molecule, the “enhancement of transition rates between inward-open and inward-closed states” value in the assay with LeuT (H7C/R86C) (2 mM Na+, as much as) was around 4 fold. The “effect on lifetimes of inward-open or inward-closed states” value with LeuT (H7C/R86C) (Ala alone, nominal absence of Na+) is “not significantly affected”. Also, the “effect on intracellular gating dynamics” value in the assay with LeuT (H7C/R86C) (F253A (S1 site) mutant, 10 mM Na+, 250 μM Ala) is recorded as “failed to increase intracellular gating dynamics”; with LeuT (H7C/R86C) (L400S (S2 site) mutant, 10 mM Na+, 250 μM Ala), “no increase in intracellular gating dynamics was observed”; in the assay on LeuT (H7C/R86C) (Li+ in place of Na+ (40 mM Li+), 250 μM Ala) it was “failed to accelerate intracellular gating dynamics”. Further, the “reduction in the rate of gate opening, kclosed-open” value in the assay with LeuT (H7C/R86C) (Li+ in place of Na+, 250 μM Ala) is reported as around 2 fold. In addition, the “lowering of activation barrier between open and closed states (ΔΔG)” value in the assay on LeuT (H7C/R86C) (as much as, conditions of the experiment) is around 0.72 kcal/mol. The substrate transport entry with LeuT [3] was “not observed”.
On to `CCCCCCCCO[C@@H]1O[C@H](CO)[C@@H](O)[C@H](O)[C@H]1O` [OG, n-octyl-β-D-glucopyranoside], for which the “effect on intracellular gating dynamics” value in the assay on LeuT (H7C/R86C) (setting [5]) is “inhibited intracellular gating dynamics”.
For the molecule `[Zn]` [zinc], the effect on transport entry in assay [4] was “markedly enhances transport”.
